Structures can show the parent of a compound that is named as a salt.
Biological target: T1, IgE-Tb / soluble IgE receptor FcεRIα with a Y131A mutation (Homo sapiens, UniProt P01854, N146Q/N252Q)
T1 construct: fused on or other part: Terbium chelate (LanthaScreen amine-reactive) on IgE-Fc; Alexa Fluor 488 hydrazide on the oxidised glycans of sFcεRIα; Both are labels and no part of the key
Assay: in vitro FRET assay: binding of IgE-Tb to receptor FcεRIα-Y131A-AF488 and its inhibition by compounds
Conditions: 5 nM IgE-Tb, 25 nM FcεRIα-Y131A-AF488, 2 hours at room temperature; read-out: FRET IC50 range

T1 sequence (P01854 104-427 N146Q/N252Q): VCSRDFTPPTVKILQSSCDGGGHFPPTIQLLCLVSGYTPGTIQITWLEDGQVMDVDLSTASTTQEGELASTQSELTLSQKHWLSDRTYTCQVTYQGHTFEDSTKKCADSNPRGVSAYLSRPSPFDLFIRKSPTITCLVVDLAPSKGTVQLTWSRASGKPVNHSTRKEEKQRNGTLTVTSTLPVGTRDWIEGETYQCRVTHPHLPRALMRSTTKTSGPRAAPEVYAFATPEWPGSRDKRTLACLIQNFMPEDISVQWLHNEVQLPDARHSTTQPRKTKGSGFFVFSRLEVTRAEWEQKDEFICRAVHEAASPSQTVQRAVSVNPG
T1 sequence (P12319 26-201 Y156A partner): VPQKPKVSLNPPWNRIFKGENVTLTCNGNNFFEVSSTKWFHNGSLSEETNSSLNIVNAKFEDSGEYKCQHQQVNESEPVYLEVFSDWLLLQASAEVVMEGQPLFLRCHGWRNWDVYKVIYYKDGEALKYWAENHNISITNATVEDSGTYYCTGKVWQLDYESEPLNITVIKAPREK

First: Cc1nnc(-c2ccc(N[C@@H]3Cc4cc5cnc(C6CC6)cc5c(S(=O)(=O)NCC(C)(C)F)c4C3)cc2)o1 [Example 70, (7R)-3-cyclopropyl-N-(2-fluoro-2-methylpropyl)-7-[4-(5-methyl-1,3,4-oxadiazol-2-yl)anilino]-7,8-dihydro-6H-cyclopenta[g]isoquinoline-5-sulfonamide]
Second: Cc1nnc(NC2Cc3cc4cnc(C5CC5)cc4c(S(=O)(=O)NCC(C)(C)F)c3C2)o1 (stereo not shown) [Example 97, 3-cyclopropyl-N-(2-fluoro-2-methylpropyl)-7-[(5-methyl-1,3,4-oxadiazol-2-yl)amino]-7,8-dihydro-6H-cyclopenta[g]isoquinoline-5-sulfonamide]
The IC50 of the first is lower: 10 to 50 nM for the first, 100 to 2000 nM for the second. The first is the more potent here.

CCNC(=O)NC1CCc2c1cc1cnc(C3CC3)cc1c2S(=O)(=O)NCC(C)C (stereo not shown) [Example 45, 1-[3-cyclopropyl-5-(2-methylpropylsulfamoyl)-7,8-dihydro-6H-cyclopenta[g]isoquinolin-8-yl]-3-ethylurea] and CC(C)CNS(=O)(=O)c1c2c(cc3cnc(C4CC4)cc13)C(O)CC2 (stereo not shown) [Example 47, 3-cyclopropyl-8-hydroxy-N-(2-methylpropyl)-7,8-dihydro-6H-cyclopenta[g]isoquinoline-5-sulfonamide] fall in the same range of IC50: 100 to 2000 nM for the first, 100 to 2000 nM for the second.

Cc1nnc(-c2ccc(NC3Cc4cc5nnc(C6CC6)cc5c(S(=O)(=O)NCC(C)(C)F)c4C3)cn2)o1 (stereo not shown) [Example 66, 3-cyclopropyl-N-(2-fluoro-2-methylpropyl)-7-[[6-(5-methyl-1,3,4-oxadiazol-2-yl)pyridin-3-yl]amino]-7,8-dihydro-6H-cyclopenta[g]cinnoline-5-sulfonamide] and Cc1nnc(-n2ccc(N[C@@H]3Cc4cc5cnc(C6CC6)cc5c(S(=O)(=O)NCC(C)(C)F)c4C3)cc2=O)o1 [Example 92, (7R)-3-cyclopropyl-N-(2-fluoro-2-methylpropyl)-7-[[1-(5-methyl-1,3,4-oxadiazol-2-yl)-2-oxopyridin-4-yl]amino]-7,8-dihydro-6H-cyclopenta[g]isoquinoline-5-sulfonamide] fall in the same range of IC50: 10 to 50 nM for the first, 10 to 50 nM for the second.

First: CC(C)CNS(=O)(=O)c1c2c(cc3cnc(C4CC4)cc13)CC(Nc1ccc(C(=O)O)nc1)C2 (stereo not shown) [Example 88, 5-[[3-cyclopropyl-5-(isobutylsulfamoyl)-7,8-dihydro-6H-cyclopenta[g]isoquinolin-7-yl]amino]pyridine-2-carboxylic acid; hydrochloride]
Second: CC(C)(F)CNS(=O)(=O)c1c2c(cc3cnc(C4CC4)cc13)C[C@@H](Nc1ccc(C(=O)O)nc1)C2 [Example 15, 5-[[(7R)-3-cyclopropyl-5-[(2-fluoro-2-methylpropyl)sulfamoyl]-7,8-dihydro-6H-cyclopenta[g]isoquinolin-7-yl]amino]pyridine-2-carboxylic acid]
The IC50 of the first is higher: 50 to 100 nM for the first, 10 to 50 nM for the second. The second is the more potent here.

Compared with CC(C)(F)CNS(=O)(=O)c1c2c(cc3cnc(C4CC4)cc13)C[C@@H](NC(=O)c1nccc3ccccc13)C2 [Example 135, N-[(7R)-3-cyclopropyl-5-[(2-fluoro-2-methylpropyl)sulfamoyl]-7,8-dihydro-6H-cyclopenta[g]isoquinolin-7-yl]isoquinoline-1-carboxamide], Cc1ccc2c(C(=O)N[C@@H]3Cc4cc5cnc(C6CC6)cc5c(S(=O)(=O)NCC(C)(C)F)c4C3)c[nH]c2c1 [Example 33, N-[(7R)-3-cyclopropyl-5-[(2-fluoro-2-methylpropyl)sulfamoyl]-7,8-dihydro-6H-cyclopenta[g]isoquinolin-7-yl]-6-methyl-1H-indole-3-carboxamide] is lower in IC50: 100 to 2000 nM for the first, 10 to 50 nM for the second. The second is the more potent here.

First: CC(C)(F)CNS(=O)(=O)c1c2c(cc3cnc(C4CC4)cc13)C[C@@H](Nc1cnc(Cl)cc1OCC1CC1)C2 [Example 119, (7R)-7-[[6-chloro-4-(cyclopropylmethoxy)pyridin-3-yl]amino]-3-cyclopropyl-N-(2-fluoro-2-methylpropyl)-7,8-dihydro-6H-cyclopenta[g]isoquinoline-5-sulfonamide]
Second: CC(C)(F)CNS(=O)(=O)c1c2c(cc3cnc(C4CC4)cc13)C[C@@H](Nc1cnc(Cl)cc1-c1nnn[nH]1)C2 [Example 126, (7R)-7-[[6-chloro-4-(1H-tetrazol-5-yl)pyridin-3-yl]amino]-3-cyclopropyl-N-(2-fluoro-2-methylpropyl)-7,8-dihydro-6H-cyclopenta[g]isoquinoline-5-sulfonamide]
The IC50 of the first is lower: 50 to 100 nM for the first, 100 to 2000 nM for the second. The first is the more potent here.

First: Cn1nnc(-c2ccc(NC3Cc4cc5cnc(C6CC6)cc5c(S(=O)(=O)NCC5(F)COC5)c4C3)cn2)n1 (stereo not shown) [Example 13, 3-cyclopropyl-N-[(3-fluorooxetan-3-yl)methyl]-7-[[6-(2-methyltetrazol-5-yl)pyridin-3-yl]amino]-7,8-dihydro-6H-cyclopenta[g]isoquinoline-5-sulfonamide]
Second: CC(=O)NS(=O)(=O)c1ccc(N[C@@H]2Cc3cc4cnc(C5CC5)cc4c(S(=O)(=O)NCC(C)(C)F)c3C2)cn1 [Example 95, N-[5-[[(7R)-3-cyclopropyl-5-[(2-fluoro-2-methylpropyl)sulfamoyl]-7,8-dihydro-6H-cyclopenta[g]isoquinolin-7-yl]amino]pyridin-2-yl]sulfonylacetamide]
The IC50 of the first is lower: 10 to 50 nM for the first, 50 to 100 nM for the second. The first is the more potent here.

First: CC(C)(F)CNS(=O)(=O)c1c2c(cc3cnc(C4CC4)cc13)CC(Nc1cc[nH]c(=O)c1)C2 (stereo not shown) [Example 63, 3-cyclopropyl-N-(2-fluoro-2-methylpropyl)-7-[(2-oxo-1H-pyridin-4-yl)amino]-7,8-dihydro-6H-cyclopenta[g]isoquinoline-5-sulfonamide]
Second: CC(C)(F)CNS(=O)(=O)c1c2c(cc3cnc(C4CC4)cc13)C[C@@H](NC1=CC(=O)COC1)C2 [Example 127, (7R)-3-cyclopropyl-N-(2-fluoro-2-methylpropyl)-7-[(5-oxo-2H-pyran-3-yl)amino]-7,8-dihydro-6H-cyclopenta[g]isoquinoline-5-sulfonamide]
The IC50 of the first is lower: 10 to 50 nM for the first, 100 to 2000 nM for the second.

CC(C)CNS(=O)(=O)c1c2c(cc3cnc(C4CC4)cc13)CC(Nc1nncn1CC1CC1)C2 (stereo not shown) [Example 5, 3-cyclopropyl-7-[[4-(cyclopropylmethyl)-1,2,4-triazol-3-yl]amino]-N-(2-methylpropyl)-7,8-dihydro-6H-cyclopenta[g]isoquinoline-5-sulfonamide] and CC(C)CNS(=O)(=O)c1c2c(cc3cnc(C4CC4)cc13)CC(NC1=CC(=O)CC1)C2 (stereo not shown) [Example 4, 3-cyclopropyl-N-(2-methylpropyl)-7-[(3-oxocyclopenten-1-yl)amino]-7,8-dihydro-6H-cyclopenta[g]isoquinoline-5-sulfonamide] fall in the same range of IC50: 10 to 50 nM for the first, 10 to 50 nM for the second.

CC(C)(F)CNS(=O)(=O)c1c2c(cc3cnc(C4CC4)cc13)CN(Cc1cccnc1)C2 [Example 91, 7-cyclopropyl-N-(2-fluoro-2-methyl-propyl)-2-(3-pyridylmethyl)-1,3-dihydropyrrolo[3,4-g]isoquinoline-9-sulfonamide; formic acid] and CC(C)(F)CNS(=O)(=O)c1c2c(cc3cnc(C4CC4)cc13)CC(c1cccnc1)C2 (stereo not shown) [Example 110, 3-cyclopropyl-N-(2-fluoro-2-methylpropyl)-7-pyridin-3-yl-7,8-dihydro-6H-cyclopenta[g]isoquinoline-5-sulfonamide] fall in the same range of IC50: 100 to 2000 nM for the first, 100 to 2000 nM for the second.

Cc1ncsc1C(=O)N[C@@H]1Cc2cc3cnc(C4CC4)cc3c(S(=O)(=O)NCC(C)(C)F)c2C1 [Example 134, N-[(7R)-3-cyclopropyl-5-[(2-fluoro-2-methylpropyl)sulfamoyl]-7,8-dihydro-6H-cyclopenta[g]isoquinolin-7-yl]-4-methyl-1,3-thiazole-5-carboxamide] and Cc1ccc(NC2Cc3cc4cnc(C5CC5)cc4c(S(=O)(=O)NCC(C)(C)O)c3C2)nn1 (stereo not shown) [Example 80, 3-cyclopropyl-N-(2-hydroxy-2-methylpropyl)-7-[(6-methylpyridazin-3-yl)amino]-7,8-dihydro-6H-cyclopenta[g]isoquinoline-5-sulfonamide] fall in the same range of IC50: 100 to 2000 nM for the first, 100 to 2000 nM for the second.

CC(O)CNS(=O)(=O)c1c2c(cc3cnc(C4CC4)cc13)CCC2 (stereo not shown) [Example 17, 3-cyclopropyl-N-(2-hydroxypropyl)-7,8-dihydro-6H-cyclopenta[g]isoquinoline-5-sulfonamide] and CC(C)CNS(=O)(=O)c1c2c(cc3cnc(C4CC4)cc13)CNC2 [Example 60, 7-cyclopropyl-N-(2-methylpropyl)-2,3-dihydro-1H-pyrrolo[3,4-g]isoquinoline-9-sulfonamide] fall in the same range of IC50: 100 to 2000 nM for the first, 100 to 2000 nM for the second.

CC(C)(F)CNS(=O)(=O)c1c2c(cc3cnc(C4CC4)cc13)CC(Nc1cncnc1Nc1cccnc1)C2 (stereo not shown) [Example 18, 3-cyclopropyl-N-(2-fluoro-2-methylpropyl)-7-[[4-(pyridin-3-ylamino)pyrimidin-5-yl]amino]-7,8-dihydro-6H-cyclopenta[g]isoquinoline-5-sulfonamide] and Cc1ccc(Oc2cncc(N[C@@H]3Cc4cc5cnc(C6CC6)cc5c(S(=O)(=O)NCC(C)(C)F)c4C3)c2)cn1 [Example 10, (7R)-3-cyclopropyl-N-(2-fluoro-2-methylpropyl)-7-[[5-(6-methylpyridin-3-yl)oxypyridin-3-yl]amino]-7,8-dihydro-6H-cyclopenta[g]isoquinoline-5-sulfonamide] fall in the same range of IC50: 1 to 10 nM for the first, 1 to 10 nM for the second.

Compared with O=c1cc(C2Cc3cc4cnc(C5CC5)cc4c(S(=O)(=O)NC4CC(F)(F)C4)c3C2)[nH]n1-c1cccnc1 (stereo not shown) [Example 111, 3-cyclopropyl-N-(3,3-difluorocyclobutyl)-7-(3-oxo-2-pyridin-3-yl-1H-pyrazol-5-yl)-7,8-dihydro-6H-cyclopenta[g]isoquinoline-5-sulfonamide], CC(C)(F)CNS(=O)(=O)c1c2c(cc3cnc(C4CC4)cc13)C[C@@H](Nc1cncnc1OC1CCOCC1)C2 [Example 120, (7R)-3-cyclopropyl-N-(2-fluoro-2-methylpropyl)-7-[[4-(oxan-4-yloxy)pyrimidin-5-yl]amino]-7,8-dihydro-6H-cyclopenta[g]isoquinoline-5-sulfonamide] is lower in IC50: 100 to 2000 nM for the first, 50 to 100 nM for the second. The second is the more potent here.

Source: patent US12577228B2, “Dihydrocyclopenta-isoquinoline-sulfonamide derivatives compounds” (UCB Biopharma SRL, priority 2019, dated 2026)
